# Measured values taken from patent US20250296953A1, “3,4-THIAZOLO-STEROIDS AND METHODS OF MAKING AND USING THE SAME” (Arkansas State University - Jonesboro, priority 2018, published 2025).
# Read-outs that look alike come from different tables or passages of the source.
# What was measured:
# Assay in all cases: Melanoma cytotoxicity assay (resazurin)
# Format in all cases: cell-based
# LOX IMVI = settings: for LOX-IMVI (% inhibition) / IC50: LOX IMVI melanoma cells; for LOX-IMVI (% inhibition): 24 hours with compound, concentration not given; for LOX-IMVI (% viability): human, 24 h; for IC50: Homo sapiens
# Description: (§1) Cytotoxicity Assay: Melanoma cells (˜4000 cells in each well) were incubated in a 96 well plates at 37° C. in 5% CO2 for 24 hours. Compounds were added in triplicates and the plate was further incubated for 24 hours. DMSO and dacarbazine were added as technical and positive controls respectively. Next day resazurin was added and the plate was further incubated for 6 hours followed by reading the plate at 544 nm (excitation) and 590 nm (emission) using BMG Labtech Fluostar Optima plate reader. IC50 values were determined by using Graphpad Prism.
# (§2) On day 1, the cell line trypsinized and centrifuged to form cell pellet. The pellet was diluted in media, then counted using Countess automated cell counter. Approximately 4000 cells (198 uL) per well plated in […]. A control well of 200 uL growth media was also prepared. Wells closest to plate perimeter were filled with 200 uL PBS to prevent inner well evaporation. The 96 well plates are incubated in 37° C. incubator at 5% CO2 for 24 hours.
# (§3) On day 2, compounds were added (in triplicate) along with DMSO/Dacarbazine controls (2 uL) added to bring wells to volume of 200 μL. The 96 well plates are incubated in 37° C. incubator at 5% CO2 for 24 hours.
# (§4) On day 3, 40 μL of 0.15 mg/ml reszurin solution added to wells. Samples were placed in a 37° C. incubator at 5% CO2 for 6 hours. Excitation and emission for fluorescence measured at 544 nm and 590 nm using BMG Labtech Fluostar Optima plate reader
# (§5) Percent viability determined by taking average of each triplicate well fluorescence and subtracting GM well reading to remove the background signal. This difference is then divided by the average of the negative control (DMSO) wells to determine percent viability.
# (§6) IC50s were determined by using cereal dilution of compound to determine viability. Viabilities and concentration of cells are analyzed in Graphpad Prism by creating sigmoidal curve graph, which will determine the IC50 concentration.
# (§7) We analyzed the ability of the thiazole-androstane derivatives to inhibit growth in various melanoma cell lines. The growth inhibition against melanoma cell lines of various compound is shown below in Tables 19 and 20. Inhibition results are reported as the IC50 concentration in μM of the indicated compound or as the percent viability […] of the indicated compound. NA=not available.
# SK-MEL-25 = settings: for SK-MEL-25 (% viability): human, 24 h; for IC50: Homo sapiens; for SK-MEL-25 (% inhibition): 24 hours with compound, concentration not given
# Description: as §1, §2, §3, §4, §5, §6, §7
# SK-MEL-28 = settings: for SK-MEL-28 (% viability): human, 24 h; for IC50: Homo sapiens, 24 hours; for IC50 / SK-MEL-28 (% inhibition): SK-MEL-28 melanoma cells, resazurin; for SK-MEL-28 (% inhibition): 24 hours with compound, concentration not given
# Description: as §1, §2, §3, §4, §5, §6, §7
# SK-MEL-5 = settings: for SK-MEL-5 (% viability): human, 24 h; for SK-MEL-5 (% inhibition): SK-MEL-5 melanoma cells, 24 hours with compound, resazurin, concentration not given
# Description: as §1, §2, §3, §4, §5, §6, §7
# MALME-3M = settings: human, 24 h
# Description: as §2, §3, §4, §5, §6, §7
# [1] = SK-MEL-25 melanoma cells, 24 hours, resazurin, read-out: SK-MEL-25 (IC50)
# [2] = SK-MEL-25 melanoma cells, resazurin
Structure (SMILES),LOX-IMVI (% inhibition) (LOX IMVI; resazurin) [%],LOX-IMVI (% viability) (LOX IMVI) [%],SK-MEL-25 (% viability) (SK-MEL-25) [%],SK-MEL-28 (% viability) (SK-MEL-28) [%],SK-MEL-5 (% viability) (SK-MEL-5) [%],MALME-3M (% viability) (MALME-3M) [%],other results
C[C@]12CCc3nc(-c4ccccc4O)sc3C1=CC[C@@H]1[C@@H]2CC[C@]2(C)C(=O)CC[C@@H]12 [II.11],35,–,–,–,–,–,–
"CNc1nc2c(s1)C1=CC[C@H]3[C@@H]4CC[C@H](O)[C@@]4(C)CC[C@@H]3[C@@]1(C)CC2 [IIIa.2, (1S,2R,13R,14S,17S,18S)-2,18-dimethyl-7-(methylamino)-8-thia-6-azapentacyclo[11.7.0.02,10.05,9.014,18]icosa-5(9),6,10-trien-17-ol]",–,14,6.21,1.9,2.02,59.51,–
"COc1cccc(-c2nc3c(s2)C2=CC[C@@H]4[C@H](CC[C@]5(C)C(=O)CC[C@@H]45)[C@@]2(C)CC3)c1 [II.9, (1S,2R,13R,14S,18S)-7-(3-methoxyphenyl)-2,18-dimethol-8-thia-6-azapentacyclo[11.7.0.02,10.05,9.014,18]icosa-5(9),7,10-trien-17-one]",13,–,–,–,–,–,–
CCOc1cccc(-c2nc3c(s2)C2=CC[C@@H]4[C@H](CC[C@]5(C)C(=O)CC[C@@H]45)[C@@]2(C)CC3)c1 [II.23],52,–,–,–,–,–,–
"C[C@]12CC[C@H]3[C@@H](CC=C4c5sc(Nc6cccc(C(=O)O)c6)nc5CC[C@@]43C)[C@@H]1CC[C@@H]2O [IIIa.35, 3-[[(1S,2R,13R,14S,17S,18S)-17-hydroxy-2,18-dimethyl-8-thia-6-azapentacyclo[11.7.0.02,10.05,9.014,18]icosa-5(9),6,10-trien-7-yl]amino]benzoic acid]",–,89,54.19,66.69,106.21,122.92,–
"CCNc1nc2c(s1)C1=CC[C@H]3[C@@H]4CC[C@H](O)[C@@]4(C)CC[C@@H]3[C@@]1(C)CC2 [IIIa.3, (1S,2R,13R,14S,17S,18S)-7-(ethylamino)-2,18-dimethyl-8-thia-6-azapentacyclo[11.7.0.02,10.05,9.014,18]icosa-5(9),6,10-trien-17-ol]",–,6,5.06,2.00,2.46,51.83,IC50 (LOX IMVI): > 20 µM
"C[C@]12CC[C@H]3[C@@H](CC=C4c5sc(Nc6ccccc6[N+](=O)[O-])nc5CC[C@@]43C)[C@@H]1CC[C@@H]2O [IIIa.16, (1S,2R,13R,14S,17S,18S)-2,18-dimethyl-7-(2-nitroanilino)-8-thia-6-azapentacyclo[11.7.0.02,10.05,9.014,18]icosa-5(9),6,10-trien-17-ol]",–,67,26.7,8.47,10.22,102.39,–
"C[C@]12CC[C@H]3[C@@H](CC=C4c5sc(NCCc6ccccc6)nc5CC[C@@]43C)[C@@H]1CC[C@@H]2O [IIIa.5, (1S,2R,13R,14S,17S,18S)-2,18-dimethyl-7-(2-phenylethylamino)-8-thia-6-azapentacyclo[11.7.0.02,10.05,9.014,18]icosa-5(9),6,10-trien-17-ol]",–,10,9.39,4.28,3.49,55.63,IC50 (LOX IMVI): 11 µM
"C=CCNc1nc2c(s1)C1=CC[C@H]3[C@@H]4CC[C@H](O)[C@@]4(C)CC[C@@H]3[C@@]1(C)CC2 [IIIa.6, (1S,2R,13R,14S,17S,18S)-7-(allylamino)-2,18-dimethyl-8-thia-6-azapentacyclo[11.7.0.02,10.05,9.014,18]icosa-5(9),6,10-trien-17-ol]",–,11,3.79,2.04,3.52,29.73,IC50 (LOX IMVI): > 20 µM
"C[C@]12CCc3nc(-c4ccc(O)cc4)sc3C1=CC[C@@H]1[C@@H]2CC[C@]2(C)C(=O)CC[C@@H]12 [II.4, (1S,2R,13R,14S,18S)-7-(4-hydroxy)-2,18-dimethyl-8-thia-6-azapentacyclo[11.7.0.02,10.05,9.014,18]icosa-5(9),7,10-trien-17-one]",16,–,–,–,–,–,–
"CC(=O)Nc1nc2c(s1)C1=CC[C@H]3[C@@H]4CC[C@H](O)[C@@]4(C)CC[C@@H]3[C@@]1(C)CC2 [IIIa.37, N-[(1S,2R,13R,14S,17S,18S)-17-hydroxy-2,18-dimethyl-8-thia-6-azapentacyclo[11.7.0.02,10.05,9.014,18]icosa-5(9),6,10-trien-7-yl]acetamide]",–,–,39.57,62.56,48.52,104.91,"IC50 (SK-MEL-25; SK-MEL-25 melanoma cells (head prints SK-25), read-out: SK-25 IC50): > 20 µM"
"C[C@]12CCc3nc(-c4cccc(O)c4)sc3C1=CC[C@@H]1[C@@H]2CC[C@]2(C)C(=O)CC[C@@H]12 [II.17, (1S,2R,13R,14S,18S)-7-(3-hydroxy)-2,18-dimethyl-8-thia-6-azapentacyclo[11.7.0.02,10.05,9.014,18]icosa-5(9),7,10-trien-17-one]",17,–,–,–,–,–,–
C[C@]12CCc3nc(-c4cc(Cl)cc(Cl)c4)sc3C1=CC[C@@H]1[C@@H]2CC[C@]2(C)C(=O)CC[C@@H]12 [II.25],89,–,–,–,–,–,–
"C[C@]12CCc3sc(Nc4ccccc4Cl)nc3C1=CC[C@@H]1[C@@H]2CC[C@]2(C)C(=O)CC[C@@H]12 [IIa.11, (1S,2R,13R,14S,18S)-7-(2-chloroanilino)-2,18-dimethyl-6-thia-8-azapentacyclo[11.7.0.02,10.05,9.014,18]icosa-5(9),7,10-trien-17-one]",–,–,–,–,–,–,"IC50 (LOX IMVI; 24 hours, resazurin): 12 µM; IC50 (SK-MEL-25; [1]): 9 µM; SK-MEL-25 (% inhibition) (SK-MEL-25; [2]): 96%; IC50 (SK-MEL-28): > 20 µM; SK-MEL-28 (% inhibition) (SK-MEL-28): 88%; SK-MEL-5 (% inhibition) (SK-MEL-5): 84%"
C[C@]12CCc3nc(Cc4ccccc4)sc3C1=CC[C@@H]1[C@@H]2CC[C@]2(C)C(=O)CC[C@@H]12 [II.2],17,–,–,–,–,–,SK-MEL-25 (% inhibition) (SK-MEL-25; [2]): 69%; SK-MEL-28 (% inhibition) (SK-MEL-28): 98%; SK-MEL-5 (% inhibition) (SK-MEL-5): 77%
"Cc1ccc(Nc2nc3c(s2)CC[C@@]2(C)C3=CC[C@@H]3[C@@H]2CC[C@]2(C)C(=O)CC[C@@H]32)cc1 [IIa.32, (1S,2R,13R,14S,18S)-2,18-dimethyl-7-(4-methylanilino)-6-thia-8-azapentacyclo[11.7.0.02,10.05,9.014,18]icosa-5(9),7,10-trien-17-one]",–,–,–,–,–,–,"IC50 (LOX IMVI; 24 hours, resazurin): 9 µM; IC50 (SK-MEL-25; [1]): 5 µM; SK-MEL-25 (% inhibition) (SK-MEL-25; [2]): 87%; IC50 (SK-MEL-28): > 20 µM; SK-MEL-28 (% inhibition) (SK-MEL-28): 63%"
"COc1ccc(OC)c(Nc2nc3c(s2)CC[C@@]2(C)C3=CC[C@@H]3[C@@H]2CC[C@]2(C)C(=O)CC[C@@H]32)c1 [IIa.16, (1S,2R,13R,14S,18S)-7-(2,5-dimethoxyanilino)-2,18-dimethyl-6-thia-8-azapentacyclo[11.7.0.02,10.05,9.014,18]icosa-5(9),7,10-trien-17-one]",–,–,–,–,–,–,SK-MEL-25 (% inhibition) (SK-MEL-25; [2]): 70%; SK-MEL-28 (% inhibition) (SK-MEL-28): 86%; SK-MEL-5 (% inhibition) (SK-MEL-5): 81%
"CCNc1nc2c(s1)CC[C@@]1(C)C2=CC[C@@H]2[C@@H]1CC[C@]1(C)C(=O)CC[C@@H]21 [IIa.30, (1S,2R,13R,14S,18S)-7-(ethylamino)-2,18-dimethyl-6-thia-8-azapentacyclo[11.7.0.02,10.05,9.014,18]icosa-5(9),7,10-trien-17-one]",–,–,–,–,–,–,SK-MEL-25 (% inhibition) (SK-MEL-25; [2]): 4%; SK-MEL-28 (% inhibition) (SK-MEL-28): 67%; SK-MEL-5 (% inhibition) (SK-MEL-5): 26%
